Experiments:
[1] = Sensory descriptive analysis by experts (n=15); details: diluted to equivalent sweetness based on 10 brix of sugar
Experimental: The transfructosylated Stevioside (STV-Fru) and the transfructosylated Rebaudioside A (RA-Fru) prepared in Preparation Example 1 were diluted to the sweetness equivalent to Stevioside (STV) and Rebaudioside A (RA) (sweetness based on 10 brix of sugar), respectively, and then presented to experts (n=15) for descriptive analysis.

[2] = Sensory preference evaluation by 15 panels; details: diluted to sweetness equivalent to 10% (w/w) or 10 brix of sugar, 9-point scale converted to 5-point scale
Experimental: Prior to sensory evaluation, four samples of Example 1 (STV, STV-Fru, RA, RA-Fru) were diluted to the sweetness equivalent to 10% (w/w) or 10 brix of sugar, and the sensory evaluation was carried out on the four samples.
The evaluation was proceeded as follow: 15 panels were given the four samples and required to evaluate the sweetness preference and the overall preference of the four samples on a 9-point scale (1=very much dislike, 5=neither dislike nor like, 9=very much like).
Then, the statistical analysis was converted to a 5-point scale to verify the significant difference through paired T tests (reliability level of 95%).

[3] = listed as transfructosylated Rebaudioside A
[4] = listed as transfructosylated Stevioside

SMILES	Bitterness Intensity [1]	Feeling of Weight [1]	Off-smell/Off flavor Intensity [1]	Overall Preference [1]	Sweetness Intensity [1]	Sweetness Persistence [1]	Sweetness Preference [1]	Overall Preference [2]	Sweetness Preference [2]	also measured
C=C1C[C@@]23CC[C@H]4[C@@](C)(CCC[C@@]4(C)C(=O)O[C@@H]4O[C@H](CO)[C@@H](O)[C@H](O)[C@H]4O)[C@@H]2CC[C@]1(O[C@@H]1O[C@H](CO)[C@@H](O)[C@H](O)[C@H]1O[C@@H]1O[C@H](CO)[C@@H](O)[C@H](O)[C@H]1O)C3 [STV, Stevioside, reference compound]	3.9	2.8	3.5	2.1	2.8	2.9	2.3	2.02	2.13	–
C=C1C[C@@]23CC[C@H]4[C@@](C)(CCC[C@@]4(C)C(=O)O[C@@H]4O[C@H](CO[C@]5(CO)O[C@H](CO)[C@@H](O)[C@@H]5O)[C@@H](O)[C@H](O)[C@H]4O)[C@@H]2CC[C@]1(O[C@@H]1O[C@H](CO)[C@@H](O)[C@H](O[C@@H]2O[C@H](CO)[C@@H](O)[C@H](O)[C@H]2O)[C@H]1O[C@@H]1O[C@H](CO)[C@@H](O)[C@H](O)[C@H]1O)C3 [RA-Fru, 13-[(2-β-D-glucopyranosyl-3-O-β-D-glucopyranosyl-β-D-glucopyranosyl)oxy]ent-kaur-16-en-19-oic acid 6-O-β-D-fructofuranose-β-D-glucopyranosyl ester]	1.8	2.7	2.4	3.5	3.1	2.6	3.4	3.73	3.42	Bitterness Intensity [1, 3]: significantly low; Off-smell/Off flavor Intensity [1, 3]: significantly low; Overall Preference [1, 3]: significantly high; Sweetness Preference [1, 3]: significantly high; Overall Preference [2, 3]: excellent; Sweetness Preference [2, 3]: excellent
C=C1C[C@@]23CC[C@H]4[C@@](C)(CCC[C@@]4(C)C(=O)O[C@@H]4O[C@H](CO)[C@@H](O)[C@H](O)[C@H]4O)[C@@H]2CC[C@]1(O[C@@H]1O[C@H](CO)[C@@H](O)[C@H](O[C@@H]2O[C@H](CO)[C@@H](O)[C@H](O)[C@H]2O)[C@H]1O[C@@H]1O[C@H](CO)[C@@H](O)[C@H](O)[C@H]1O)C3 [RA, Rebaudioside A, reference compound]	3.4	2.9	3.3	2.6	3.2	2.9	2.5	2.72	2.51	–
C=C1C[C@@]23CC[C@H]4[C@@](C)(CCC[C@@]4(C)C(=O)O[C@@H]4O[C@H](CO[C@]5(CO)O[C@H](CO)[C@@H](O)[C@@H]5O)[C@@H](O)[C@H](O)[C@H]4O)[C@@H]2CC[C@]1(O[C@@H]1O[C@H](CO)[C@@H](O)[C@H](O)[C@H]1O[C@@H]1O[C@H](CO)[C@@H](O)[C@H](O)[C@H]1O)C3 [STV-Fru]	2.3	3.2	2.3	3.5	2.6	2.7	3.3	3.02	3.14	Bitterness Intensity [1, 4]: significantly low; Off-smell/Off flavor Intensity [1, 4]: significantly low; Overall Preference [1, 4]: significantly high; Sweetness Preference [1, 4]: significantly high; Overall Preference [2, 4]: excellent; Sweetness Preference [2, 4]: excellent
